Tests used:
[1] = target: T1, Carbonic anhydrase 9 (Homo sapiens, UniProt Q16790)
Description: Inhibition of human carbonic anhydrase 9 incubated for 15 mins prior to testing by stopped flow CO2 hydration assay

[2] = target: Carbonic anhydrase 2 (Homo sapiens, UniProt P00918); assay: Inhibition of human carbonic anhydrase 2 incubated for 15 mins prior to testing by stopped flow CO2 hydration assay
[3] = target: T1, Carbonic anhydrase 9; assay: Activation of human carbonic anhydrase 9 incubated for 15 mins prior to testing by stopped flow CO2 hydration assay
[4] = target: Carbonic anhydrase 1 (Homo sapiens, UniProt P00915); assay: Inhibition of human carbonic anhydrase 1 incubated for 15 mins prior to testing by stopped flow CO2 hydration assay
Chain of Carbonic anhydrase 1 (P00915 whole entry): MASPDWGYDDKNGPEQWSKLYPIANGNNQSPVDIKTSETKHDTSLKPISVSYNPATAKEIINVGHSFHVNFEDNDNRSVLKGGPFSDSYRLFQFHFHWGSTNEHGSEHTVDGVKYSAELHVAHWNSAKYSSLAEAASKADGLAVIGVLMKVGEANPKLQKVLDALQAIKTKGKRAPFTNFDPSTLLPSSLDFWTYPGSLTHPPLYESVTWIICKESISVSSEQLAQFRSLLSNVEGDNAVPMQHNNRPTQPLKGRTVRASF

SMILES	Ki [1] [nM]	Ki [2] [nM]	Activity [3] [µM]	Ki [4] [nM]
O=C(NNC(=S)NCc1ccccc1)c1ccccc1O	980	> 10000		
C=CCNC(=S)NNC(=O)c1ccccc1O	760	> 10000		
O=C(NNC(=S)Nc1ccccc1)c1ccccc1O	1220	> 10000		
CCNC(=S)NNC(=O)c1ccccc1O	878	> 10000		
C=CCNC(=S)NNC(=O)c1ccncc1	970		12.3	871
O=C(NNC(=S)Nc1ccccc1)c1ccncc1	317		1.42	34.1
CCN=C(S)NNC(=O)c1ccncc1	884		12.5	96.9
O=C(NNC(=S)NCc1ccccc1)c1ccncc1	964		0.81	
NC(=S)NNC(=O)c1ccccc1O	1010	> 10000		
NC(=S)NNC(=O)c1ccncc1			3.61	
Cc1ccc(NC(=S)NNC(=O)c2ccncc2)cc1	1120		2.57	
Cc1ccc(NC(=S)NNC(=O)c2ccccc2O)cc1		> 10000		
